# According to patent US8399502B2, “Analogs of indole-3-carbinol and their use as agents against infection” (priority 2008, dated 2013):
# System: Francisella tularensis (FT; Gram-negative)
# Assay: microbe, parasite or virus in culture
# Format: cell-based
# Details: read-out: MIC FT
row,SMILES,MIC
1,Fc1ccc2[nH]c3c(OC4CCNC4)c4[nH]c5ccc(F)cc5c4cc3c2c1 (stereo not drawn),0.5 µg/mL
2,CN(C)CC#Cc1c2[nH]c3ccc(F)cc3c2cc2c1[nH]c1ccc(F)cc12 [drawing 210],0.25 µg/mL
3,CN(C)CCOc1c2[nH]c3ccc(F)cc3c2c(Br)c2c1[nH]c1ccc(F)cc12,0.25 µg/mL
4,Clc1ccc2[nH]c3c(OC4CCNC4)c4[nH]c5ccc(Cl)cc5c4cc3c2c1 (stereo not drawn),0.25 to 1 µg/mL
5,OC1CN(CCCOc2c3[nH]c4ccc(Cl)cc4c3cc3c2[nH]c2ccc(Cl)cc23)C1,0.5 µg/mL
6,N=C(N)NCCCOc1c2[nH]c3ccc(Cl)cc3c2cc2c1[nH]c1ccc(Cl)cc12 [drawing 217],0.25 µg/mL
7,NCCOc1c2[nH]c3ccc(Cl)cc3c2cc2c1[nH]c1ccc(Cl)cc12,0.5 µg/mL
8,N[C@H]1CCN(CCCOc2c3[nH]c4ccc(Cl)cc4c3cc3c2[nH]c2ccc(Cl)cc23)C1,0.5 µg/mL
9,Fc1ccc2[nH]c3c(O[C@H]4CCNC4)c4[nH]c5ccc(F)cc5c4cc3c2c1 [drawing 254],0.25 µg/mL
10,OC1CCN(CCCOc2c3[nH]c4ccc(F)cc4c3cc3c2[nH]c2ccc(F)cc23)C1 (stereo not drawn),0.5 µg/mL
11,NCCCOc1c2[nH]c3ccc(Cl)cc3c2cc2c1[nH]c1ccc(Cl)cc12,0.25 to 0.5 µg/mL
12,CN(C)C1CCN(CCOc2c3[nH]c4ccc(F)cc4c3cc3c2[nH]c2ccc(F)cc23)C1 (stereo not drawn),0.5 µg/mL
13,Clc1ccc2[nH]c3c(OCCCNCc4cnc[nH]4)c4[nH]c5ccc(Cl)cc5c4cc3c2c1,1 µg/mL
14,Clc1ccc2[nH]c3c(OCC4CCCN4)c4[nH]c5ccc(Cl)cc5c4cc3c2c1 (stereo not drawn),0.5 µg/mL
15,Clc1ccc2[nH]c3c(OCCCNC4CCNCC4)c4[nH]c5ccc(Cl)cc5c4cc3c2c1,1 µg/mL
16,CN(C)CCCc1c2[nH]c3ccc(F)cc3c2cc2c1[nH]c1ccc(F)cc12,1 µg/mL
17,C[N+](C)(C)CCOc1c2[nH]c3ccc(F)cc3c2cc2c1[nH]c1ccc(F)cc12.[I-],1 µg/mL

# System: Bacillus anthracis (BA; Gram-positive)
# Assay: microbe, parasite or virus in culture
# Format: cell-based
# Details: read-out: MIC BA
row,SMILES,MIC
1,Fc1ccc2[nH]c3c(OC4CCNC4)c4[nH]c5ccc(F)cc5c4cc3c2c1 (stereo not drawn),≤ 0.25 µg/mL
2,CN(C)CC#Cc1c2[nH]c3ccc(F)cc3c2cc2c1[nH]c1ccc(F)cc12 [drawing 210],0.5 µg/mL
3,CN(C)CCOc1c2[nH]c3ccc(F)cc3c2c(Br)c2c1[nH]c1ccc(F)cc12,0.25 µg/mL
4,Clc1ccc2[nH]c3c(OC4CCNC4)c4[nH]c5ccc(Cl)cc5c4cc3c2c1 (stereo not drawn),0.5 to 1 µg/mL
5,OC1CN(CCCOc2c3[nH]c4ccc(Cl)cc4c3cc3c2[nH]c2ccc(Cl)cc23)C1,0.5 µg/mL
6,N=C(N)NCCCOc1c2[nH]c3ccc(Cl)cc3c2cc2c1[nH]c1ccc(Cl)cc12 [drawing 217],0.25 µg/mL
7,NCCOc1c2[nH]c3ccc(Cl)cc3c2cc2c1[nH]c1ccc(Cl)cc12,2 µg/mL
8,N[C@H]1CCN(CCCOc2c3[nH]c4ccc(Cl)cc4c3cc3c2[nH]c2ccc(Cl)cc23)C1,0.5 µg/mL
9,Fc1ccc2[nH]c3c(O[C@H]4CCNC4)c4[nH]c5ccc(F)cc5c4cc3c2c1 [drawing 254],0.25 µg/mL
10,OC1CCN(CCCOc2c3[nH]c4ccc(F)cc4c3cc3c2[nH]c2ccc(F)cc23)C1 (stereo not drawn),0.5 µg/mL
11,NCCCOc1c2[nH]c3ccc(Cl)cc3c2cc2c1[nH]c1ccc(Cl)cc12,0.5 µg/mL
12,CN(C)C1CCN(CCOc2c3[nH]c4ccc(F)cc4c3cc3c2[nH]c2ccc(F)cc23)C1 (stereo not drawn),1 µg/mL
13,Clc1ccc2[nH]c3c(OCCCNCc4cnc[nH]4)c4[nH]c5ccc(Cl)cc5c4cc3c2c1,0.5 µg/mL
14,Clc1ccc2[nH]c3c(OCC4CCCN4)c4[nH]c5ccc(Cl)cc5c4cc3c2c1 (stereo not drawn),1 µg/mL
15,Clc1ccc2[nH]c3c(OCCCNC4CCNCC4)c4[nH]c5ccc(Cl)cc5c4cc3c2c1,1 µg/mL
16,CN(C)CCCc1c2[nH]c3ccc(F)cc3c2cc2c1[nH]c1ccc(F)cc12,1 µg/mL
17,C[N+](C)(C)CCOc1c2[nH]c3ccc(F)cc3c2cc2c1[nH]c1ccc(F)cc12.[I-],0.5 µg/mL

# System: Yersinia pestis (YP; Gram-negative)
# Assay: microbe, parasite or virus in culture
# Format: cell-based
# Details: read-out: MIC YP
row,SMILES,MIC
1,Fc1ccc2[nH]c3c(OC4CCNC4)c4[nH]c5ccc(F)cc5c4cc3c2c1 (stereo not drawn),1 µg/mL
2,CN(C)CC#Cc1c2[nH]c3ccc(F)cc3c2cc2c1[nH]c1ccc(F)cc12 [drawing 210],2 µg/mL
3,CN(C)CCOc1c2[nH]c3ccc(F)cc3c2c(Br)c2c1[nH]c1ccc(F)cc12,> 8 µg/mL
4,Clc1ccc2[nH]c3c(OC4CCNC4)c4[nH]c5ccc(Cl)cc5c4cc3c2c1 (stereo not drawn),1 µg/mL
5,OC1CN(CCCOc2c3[nH]c4ccc(Cl)cc4c3cc3c2[nH]c2ccc(Cl)cc23)C1,4 µg/mL
6,N=C(N)NCCCOc1c2[nH]c3ccc(Cl)cc3c2cc2c1[nH]c1ccc(Cl)cc12 [drawing 217],1 µg/mL
7,NCCOc1c2[nH]c3ccc(Cl)cc3c2cc2c1[nH]c1ccc(Cl)cc12,2 µg/mL
8,N[C@H]1CCN(CCCOc2c3[nH]c4ccc(Cl)cc4c3cc3c2[nH]c2ccc(Cl)cc23)C1,2 µg/mL
9,Fc1ccc2[nH]c3c(O[C@H]4CCNC4)c4[nH]c5ccc(F)cc5c4cc3c2c1 [drawing 254],1 µg/mL
10,OC1CCN(CCCOc2c3[nH]c4ccc(F)cc4c3cc3c2[nH]c2ccc(F)cc23)C1 (stereo not drawn),8 µg/mL
11,NCCCOc1c2[nH]c3ccc(Cl)cc3c2cc2c1[nH]c1ccc(Cl)cc12,2 µg/mL
12,CN(C)C1CCN(CCOc2c3[nH]c4ccc(F)cc4c3cc3c2[nH]c2ccc(F)cc23)C1 (stereo not drawn),> 8 µg/mL
13,Clc1ccc2[nH]c3c(OCCCNCc4cnc[nH]4)c4[nH]c5ccc(Cl)cc5c4cc3c2c1,4 µg/mL
14,Clc1ccc2[nH]c3c(OCC4CCCN4)c4[nH]c5ccc(Cl)cc5c4cc3c2c1 (stereo not drawn),1 µg/mL
15,Clc1ccc2[nH]c3c(OCCCNC4CCNCC4)c4[nH]c5ccc(Cl)cc5c4cc3c2c1,2 µg/mL
16,CN(C)CCCc1c2[nH]c3ccc(F)cc3c2cc2c1[nH]c1ccc(F)cc12,8 µg/mL
17,C[N+](C)(C)CCOc1c2[nH]c3ccc(F)cc3c2cc2c1[nH]c1ccc(F)cc12.[I-],> 8 µg/mL

# System: Brucella abortus (BAB; Gram-negative)
# Assay: microbe, parasite or virus in culture
# Format: cell-based
# Details: read-out: MIC BAB
row,SMILES,MIC
1,Fc1ccc2[nH]c3c(OC4CCNC4)c4[nH]c5ccc(F)cc5c4cc3c2c1 (stereo not drawn),≤ 0.25 µg/mL
2,CN(C)CC#Cc1c2[nH]c3ccc(F)cc3c2cc2c1[nH]c1ccc(F)cc12 [drawing 210],0.25 µg/mL
3,CN(C)CCOc1c2[nH]c3ccc(F)cc3c2c(Br)c2c1[nH]c1ccc(F)cc12,0.25 µg/mL
4,Clc1ccc2[nH]c3c(OC4CCNC4)c4[nH]c5ccc(Cl)cc5c4cc3c2c1 (stereo not drawn),0.25 µg/mL
5,OC1CN(CCCOc2c3[nH]c4ccc(Cl)cc4c3cc3c2[nH]c2ccc(Cl)cc23)C1,1 µg/mL
6,N=C(N)NCCCOc1c2[nH]c3ccc(Cl)cc3c2cc2c1[nH]c1ccc(Cl)cc12 [drawing 217],0.25 µg/mL
7,NCCOc1c2[nH]c3ccc(Cl)cc3c2cc2c1[nH]c1ccc(Cl)cc12,0.5 µg/mL
8,N[C@H]1CCN(CCCOc2c3[nH]c4ccc(Cl)cc4c3cc3c2[nH]c2ccc(Cl)cc23)C1,0.25 µg/mL
9,Fc1ccc2[nH]c3c(O[C@H]4CCNC4)c4[nH]c5ccc(F)cc5c4cc3c2c1 [drawing 254],< 0.25 µg/mL
10,OC1CCN(CCCOc2c3[nH]c4ccc(F)cc4c3cc3c2[nH]c2ccc(F)cc23)C1 (stereo not drawn),0.251 µg/mL
11,NCCCOc1c2[nH]c3ccc(Cl)cc3c2cc2c1[nH]c1ccc(Cl)cc12,0.5 µg/mL
12,CN(C)C1CCN(CCOc2c3[nH]c4ccc(F)cc4c3cc3c2[nH]c2ccc(F)cc23)C1 (stereo not drawn),0.5 µg/mL
13,Clc1ccc2[nH]c3c(OCCCNCc4cnc[nH]4)c4[nH]c5ccc(Cl)cc5c4cc3c2c1,0.5 µg/mL
14,Clc1ccc2[nH]c3c(OCC4CCCN4)c4[nH]c5ccc(Cl)cc5c4cc3c2c1 (stereo not drawn),0.5 µg/mL
15,Clc1ccc2[nH]c3c(OCCCNC4CCNCC4)c4[nH]c5ccc(Cl)cc5c4cc3c2c1,1 µg/mL
16,CN(C)CCCc1c2[nH]c3ccc(F)cc3c2cc2c1[nH]c1ccc(F)cc12,1 µg/mL
17,C[N+](C)(C)CCOc1c2[nH]c3ccc(F)cc3c2cc2c1[nH]c1ccc(F)cc12.[I-],2 µg/mL

# System: Burkholderia mallei (BM; Gram-negative)
# Assay: microbe, parasite or virus in culture
# Format: cell-based
# Details: read-out: MIC BM
row,SMILES,MIC
1,Fc1ccc2[nH]c3c(OC4CCNC4)c4[nH]c5ccc(F)cc5c4cc3c2c1 (stereo not drawn),2 µg/mL
2,CN(C)CC#Cc1c2[nH]c3ccc(F)cc3c2cc2c1[nH]c1ccc(F)cc12 [drawing 210],8 µg/mL
3,CN(C)CCOc1c2[nH]c3ccc(F)cc3c2c(Br)c2c1[nH]c1ccc(F)cc12,> 8 µg/mL
4,Clc1ccc2[nH]c3c(OC4CCNC4)c4[nH]c5ccc(Cl)cc5c4cc3c2c1 (stereo not drawn),2 µg/mL
5,N=C(N)NCCCOc1c2[nH]c3ccc(Cl)cc3c2cc2c1[nH]c1ccc(Cl)cc12 [drawing 217],1 µg/mL
6,NCCOc1c2[nH]c3ccc(Cl)cc3c2cc2c1[nH]c1ccc(Cl)cc12,4 µg/mL
7,N[C@H]1CCN(CCCOc2c3[nH]c4ccc(Cl)cc4c3cc3c2[nH]c2ccc(Cl)cc23)C1,> 8 µg/mL
8,Fc1ccc2[nH]c3c(O[C@H]4CCNC4)c4[nH]c5ccc(F)cc5c4cc3c2c1 [drawing 254],2 µg/mL
9,OC1CCN(CCCOc2c3[nH]c4ccc(F)cc4c3cc3c2[nH]c2ccc(F)cc23)C1 (stereo not drawn),8 µg/mL
10,NCCCOc1c2[nH]c3ccc(Cl)cc3c2cc2c1[nH]c1ccc(Cl)cc12,4 µg/mL
11,Clc1ccc2[nH]c3c(OCC4CCCN4)c4[nH]c5ccc(Cl)cc5c4cc3c2c1 (stereo not drawn),4 µg/mL
12,Clc1ccc2[nH]c3c(OCCCNC4CCNCC4)c4[nH]c5ccc(Cl)cc5c4cc3c2c1,4 µg/mL
13,CN(C)CCCc1c2[nH]c3ccc(F)cc3c2cc2c1[nH]c1ccc(F)cc12,16 µg/mL
14,C[N+](C)(C)CCOc1c2[nH]c3ccc(F)cc3c2cc2c1[nH]c1ccc(F)cc12.[I-],8 µg/mL

# System: Burkholderia pseudomallei (BP; Gram-negative)
# Assay: microbe, parasite or virus in culture
# Format: cell-based
# Details: read-out: MIC BP
row,SMILES,MIC
1,Fc1ccc2[nH]c3c(OC4CCNC4)c4[nH]c5ccc(F)cc5c4cc3c2c1 (stereo not drawn),4 µg/mL
2,CN(C)CC#Cc1c2[nH]c3ccc(F)cc3c2cc2c1[nH]c1ccc(F)cc12 [drawing 210],> 8 µg/mL
3,CN(C)CCOc1c2[nH]c3ccc(F)cc3c2c(Br)c2c1[nH]c1ccc(F)cc12,> 8 µg/mL
4,Clc1ccc2[nH]c3c(OC4CCNC4)c4[nH]c5ccc(Cl)cc5c4cc3c2c1 (stereo not drawn),4 µg/mL
5,N=C(N)NCCCOc1c2[nH]c3ccc(Cl)cc3c2cc2c1[nH]c1ccc(Cl)cc12 [drawing 217],2 µg/mL
6,NCCOc1c2[nH]c3ccc(Cl)cc3c2cc2c1[nH]c1ccc(Cl)cc12,8 µg/mL
7,N[C@H]1CCN(CCCOc2c3[nH]c4ccc(Cl)cc4c3cc3c2[nH]c2ccc(Cl)cc23)C1,> 8 µg/mL
8,Fc1ccc2[nH]c3c(O[C@H]4CCNC4)c4[nH]c5ccc(F)cc5c4cc3c2c1 [drawing 254],4 µg/mL
9,OC1CCN(CCCOc2c3[nH]c4ccc(F)cc4c3cc3c2[nH]c2ccc(F)cc23)C1 (stereo not drawn),8 µg/mL
10,NCCCOc1c2[nH]c3ccc(Cl)cc3c2cc2c1[nH]c1ccc(Cl)cc12,8 µg/mL
11,Clc1ccc2[nH]c3c(OCC4CCCN4)c4[nH]c5ccc(Cl)cc5c4cc3c2c1 (stereo not drawn),8 µg/mL
12,Clc1ccc2[nH]c3c(OCCCNC4CCNCC4)c4[nH]c5ccc(Cl)cc5c4cc3c2c1,8 µg/mL
13,CN(C)CCCc1c2[nH]c3ccc(F)cc3c2cc2c1[nH]c1ccc(F)cc12,> 16 µg/mL
14,C[N+](C)(C)CCOc1c2[nH]c3ccc(F)cc3c2cc2c1[nH]c1ccc(F)cc12.[I-],8 µg/mL
